According to the supplement of paper PMC10790783:
Where a name gives a salt, the structure may show the parent alone.

System: MRC5-hT fibroblasts expressing HCMV UL38 (glucose-free medium)
Experiment: rescue of cell number (AUC of dose-response) relative to untreated glucose-free control; higher = stronger protection from glucose-starvation-induced cell death
Conditions: glucose: 0 (glucose-free DMEM); 96 h; dose range 0.001-20, 10-point curve µM
Method: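 MRC5-hT fibroblasts stably expressing HCMV UL38 were seeded in 384-well plates, serum-starved for 24 h, switched to glucose-free DMEM, and pin-transferred with a metabolism-focused compound library as 10-point dose curves (1 nM to 20 µM; n=2). Nuclei were counted by Hoechst imaging 96 h after glucose withdrawal.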

Row | Compound | rescue of cell number [%]
1 | CC(C)c1nc(N(C)S(C)(=O)=O)nc(-c2ccc(F)cc2)c1/C=C/[C@@H](O)C[C@@H](O)CC(=O)O [Rosuvastatin] | 45.3
2 | Cc1nc(=O)c2cc(CN(C)c3ccc(C(=O)N[C@@H](CCC(=O)O)C(=O)O)s3)ccc2[nH]1 [Raltitrexed] | -26.7
3 | CC[C@]1(O)C[C@H]2CN(CCc3c([nH]c4ccccc34)[C@@](C(=O)OC)(c3cc4c(cc3OC)N(C=O)[C@H]3[C@@](O)(C(=O)OC)[C@H](OC(C)=O)[C@]5(CC)C=CCN6CC[C@]43[C@@H]65)C2)C1 [Vincristine_sulfate] | 29.6
4 | O=C(O)CC[N+](=O)[O-] [3_Nitropropionic_acid] | -31.7
5 | COc1ccc(N(C(=O)CCl)C(C(=O)NCCc2ccccc2)c2cccs2)cc1Cl (stereo not given) [ML-162] | 15.3
6 | CN1C(=O)[C@@]23C[C@]4([C@]56C[C@@]78SS[C@@](CO)(C(=O)N7[C@H]5Nc5ccccc56)N(C)C8=O)c5ccccc5N[C@@H]4N2C(=O)[C@]1(CO)SS3 [Chaetocin] | 11.4
7 | O=C(O)c1cc(/N=N/c2ccc(S(=O)(=O)Nc3ccccn3)cc2)ccc1O [Sulfasalazine] | 87.4
8 | O=C(O)c1ccccc1SC1=NS(=O)(=O)c2ccccc21 | -13.9
9 | OC(c1cc(C(F)(F)F)nc2c(C(F)(F)F)cccc12)C1CCCCN1 (stereo not given) [Mefloquine] | -12
10 | CC(C)(C)c1ccc(S(=O)(=O)NCc2ccc(C(=O)Nc3cccnc3)cc2)cc1 [STF_31] | 26.1
11 | C[C@@H]1CC[C@H]2[C@@H](C)C(=O)O[C@@H]3O[C@@]4(C)CC[C@@H]1[C@]32OO4 [Artemisinin] | 15.9
12 | NCCc1ccc(S(=O)(=O)F)cc1 [AEBSF] | 50.3
13 | CC(=O)O[C@H]1C(=O)[C@@]2(C)[C@H]([C@H](OC(=O)c3ccccc3)[C@]3(O)C[C@H](OC(=O)[C@H](O)[C@@H](NC(=O)c4ccccc4)c4ccccc4)C(C)=C1C3(C)C)[C@]1(OC(C)=O)CO[C@@H]1C[C@@H]2O [Taxol] | 21.5
14 | O=C(c1cc(Cc2n[nH]c(=O)c3ccccc23)ccc1F)N1CCN(C(=O)C2CC2)CC1 [Olaparib] | -15.1
15 | CCc1ccc(CCOc2ccc(CC3SC(=O)NC3=O)cc2)nc1 (stereo not given) [Pioglitazone] | 69
16 | CN1CCN(C(=O)c2ccc(-c3ccc4c(C=O)c(O)ccc4c3)s2)CC1 [MKC3946] | -14.6
17 | CC(=O)N1CCN(c2ccc(OCC3COC(Cn4ccnc4)(c4ccc(Cl)cc4Cl)O3)cc2)CC1 (stereo not given) [Ketoconazole] | -8.71
18 | Cc1cc2c(C(C)C)c(O)c(O)c(C=O)c2c(O)c1-c1c(C)cc2c(C(C)C)c(O)c(O)c(C=O)c2c1O [Gossypol] | 43.9
19 | CC(=O)OC[C@H]1O[C@@H]([S-])[C@H](OC(C)=O)[C@@H](OC(C)=O)[C@@H]1OC(C)=O.CCP(CC)CC.[Au+] [Auranofin] | -0.594
20 | N=C(N)NC(=N)NCCc1ccccc1 [Phenformin] | -11.3
21 | CCCCCCCCCCCCCCCCOc1nc2ccc(C)cc2c(=O)o1 [Cetilistat] | -5.21
22 | CN(Cc1cnc2nc(N)nc(N)c2n1)c1ccc(C(=O)N[C@@H](CCC(=O)O)C(=O)O)cc1 [Methotrexate] | -33.3
23 | c1cc(-c2cnn3cc(-c4ccc(OCCN5CCCCC5)cc4)cnc23)ccn1 [Dorsomorphin] | 66.2
24 | CC(C)(C)NC(=O)[C@H]1CC[C@H]2[C@@H]3CC[C@H]4NC(=O)C=C[C@]4(C)[C@H]3CC[C@]12C [Finasteride] | -38.3
25 | Nc1nc(Cl)nc2c1ncn2[C@H]1C[C@H](O)[C@@H](CO)O1 [Cladribine] | -12.9

Row | Compound | rescue of cell number [%]
26 | CCCCCCCCCCCCC/C=C/[C@@H](O)[C@H](CO)N(C)C [N_N_Dimethylsphingosine] | 18.1
27 | CCN(CC)Cc1ccc(C(=O)N(CCc2ccccc2OC)[C@@H]2CCNC2)cc1 | 63.9
28 | O=C(O)C[C@@]1(O)C[C@@H](CCCCCCc2ccc(Cl)cc2Cl)OC1=O | 45.4
29 | O=C(NNc1ccccc1)c1ccncc1 [PluriSln_1] | 41.4
30 | OCCN(CCO)c1nc(N2CCCCC2)c2nc(N(CCO)CCO)nc(N3CCCCC3)c2n1 [Dipyridamole] | 141
31 | Cc1ccc(-c2cc(C(F)(F)F)nn2-c2ccc(S(N)(=O)=O)cc2)cc1 [Celecoxib] | 68.1
32 | C[S+]([O-])CCCCN=C=S (stereo not given) [Sulforaphane] | -10.7
33 | COc1c(C)c2c(c(O)c1C/C=C(\C)CCC(=O)O)C(=O)OC2 [Mycophenolic_Acid] | 51.6
34 | C[N+](C)(C)CCO.C[N+](C)(C)CCO.[SH-].[SH-].[S]=[Mo]=[S] [ATN-224] | -20.1
35 | N#CC(CCCN1CCN(/N=C/c2cccnc2)CC1)(c1ccccc1)c1ccccc1 | 99.9
36 | COC(=O)/C=C/C(=O)OC [Dimethyl fumarate] | 67.2
37 | CCOC(=O)c1ccc(-c2ccc(OC(=O)N(C)Cc3cccc(-c4ccncc4)c3)cc2)cc1 [WWL_113] | -23.8
38 | CCCc1cc(-c2nc(-c3ccc(C)cc3)cs2)ccn1 [Fatostatin_A] | 76.5
39 | OC[C@H]1O[C@@H](c2ccc(F)c(Cc3cc4ccccc4s3)c2)[C@H](O)[C@@H](O)[C@@H]1O [Ipragliflozin] | -33.8
40 | CC1=C(/C=C/C(C)=C/C=C/C(C)=C\C(=O)O)C(C)(C)CCC1 [Isotretinoin] | 128
41 | Oc1ncnc2[nH]ncc12 [Allopurinol] | -22.3
42 | N#Cc1cn([C@@H]2O[C@H](CO)[C@@H](O)[C@H]2O)c2ncnc(N)c12 [Toyocamycin] | 9.71
43 | [N-]=[N+]=CC(=O)OC[C@H](N)C(=O)O [Azaserine] | -20.4
44 | N#CSc1cc(SC#N)c(N)nc1N [PR-619] | -9.68
45 | CC(=O)NC(CSC(=S)Nc1ccc(NC(=S)SCC(NC(C)=O)C(=O)O)cc1)C(=O)O (stereo not given) [2-AAPA hydrate] | -9.91
46 | O=C1CCCC(=O)C1C(=O)c1ccc(C(F)(F)F)cc1[N+](=O)[O-] [Nitisinone] | 5
47 | COc1c(O)cc2oc(-c3ccc(O)cc3)cc(=O)c2c1O [Hispidulin] | 145
48 | CCN[C@H]1C[C@H](C)S(=O)(=O)c2sc(S(N)(=O)=O)cc21 [Dorzolamide] | 104
49 | CC(C)c1cc(C(C)C)c(CC(=O)NS(=O)(=O)Oc2c(C(C)C)cccc2C(C)C)c(C(C)C)c1 [Avasimibe] | 7.22
50 | c1ccc2c(c1)[I+]c1ccccc1-2 [Diphenyleneiodonium_chloride] | 22.9

Row | Compound | rescue of cell number [%]
51 | CN1Cc2c(N)cccc2C(c2ccccc2)C1 (stereo not given) [Nomifensine] | -5.61
52 | Cc1c2oc3c(C)ccc(C(=O)N[C@@H]4C(=O)N[C@H](C(C)C)C(=O)N5CCC[C@H]5C(=O)N(C)CC(=O)N(C)[C@@H](C(C)C)C(=O)O[C@@H]4C)c3nc-2c(C(=O)N[C@@H]2C(=O)N[C@H](C(C)C)C(=O)N3CCC[C@H]3C(=O)N(C)CC(=O)N(C)[C@@H](C(C)C)C(=O)O[C@@H]2C)c(N)c1=O [Actinomycin_D] | 27.1
53 | O=C(O)Cc1ccccc1Nc1c(Cl)cccc1Cl [Diclofenac] | -20
54 | CC[C@H](C)C(=O)O[C@H]1C[C@H](O)C=C2C=C[C@H](C)[C@H](CC[C@@H](O)C[C@@H](O)CC(=O)O)[C@H]21 [Pravastatin] | -35.3
55 | C/C(O)=C(\C#N)C(=O)Nc1ccc(C(F)(F)F)cc1 [Teriflunomide] | -6.67
56 | Cc1cccc(CN2CCN(C(c3ccccc3)c3ccc(Cl)cc3)CC2)c1 (stereo not given) [Meclizine] | 31.4
57 | CN(C)CC[C@H](CSc1ccccc1)Nc1ccc(S(=O)(=O)NC(=O)c2ccc(N3CCN(Cc4ccccc4-c4ccc(Cl)cc4)CC3)cc2)cc1[N+](=O)[O-] [ABT_737] | -33.6
58 | O=C(/C=C/c1ccc(O)c(O)c1)O[C@@H]1C[C@](O)(C(=O)O)C[C@@H](O)[C@H]1O [Chlorogenic_acid] | 95
59 | CCc1nc(N)nc(N)c1-c1ccc(Cl)cc1 [Pyrimethamine] | -35.1
60 | Cc1cccc(CC(=O)N2CCc3c2ccc(-c2cn(C)c4ncnc(N)c24)c3F)n1 | 70.7
61 | Cc1[nH]nc(C(F)(F)F)c1Cc1sc2c(c1C(=O)N1C[C@](C)(O)CO1)c(=O)n(C)c(=O)n2C(C)C [AZD3965] | 0.308
62 | CN(N=O)C(=O)N[C@@H](C=O)[C@@H](O)[C@H](O)[C@H](O)CO [Streptozocin] | 33.4
63 | CCCCNc1cc(C(=O)O)cc(S(N)(=O)=O)c1Oc1ccccc1 [Bumetanide] | -20.9
64 | CCCCCCCCCCC[C@@H](C[C@@H]1OC(=O)[C@H]1CCCCCC)OC(=O)[C@H](CC(C)C)NC=O [Orlistat] | -10.4
65 | NS(=O)(=O)c1ccc(NC(=O)Nc2ccc(F)cc2)cc1 [U_104] | -34.7
66 | NCCOCCOCCNC(=O)Cc1ccc(Nc2nc(NCc3ccc(F)cc3)nc(NCC3CCCCC3)n2)cc1 [AP-III-a4] | 33.4
67 | COc1ccc(C(CN(C)C)C2(O)CCCCC2)cc1 (stereo not given) [Venlafaxine] | 6.28
68 | CC1(C)CCC2=C(O1)c1ccccc1C(=O)C2=O [beta_Lapachone] | 70.8
69 | Cc1cc(=O)oc2c(C=O)c(O)ccc12 [4mu8C] | 23.6
70 | COc1cc(/C=C/C(=O)N2CCC=CC2=O)cc(OC)c1OC [Piperlongumine] | 36.8
71 | CCc1ccc(Cc2ccc3c(c2)[C@]2(OC3)O[C@H](CO)[C@@H](O)[C@H](O)[C@H]2O)cc1 [Tofogliflozin hydrate] | -27.9
72 | OCC(CO)N[C@H]1C[C@](O)(CO)[C@@H](O)[C@H](O)[C@H]1O [Voglibose] | -36.2
73 | Nc1ccn([C@H]2CC[C@@H](CO)O2)c(=O)n1 [Zalcitabine] | 9.86
74 | CCCCCCCCc1ccc(CCC(N)(CO)CO)cc1 [Fingolimod] | -1.64
75 | CCN(CC)C(=S)SSC(=S)N(CC)CC [Disulfiram] | 113
